This is an account of results in US8629251B2, “Specific detection and quantification of phosphatidic acid using an Arabidopsis trigalactosyldiacylglycerol-4 (TGD4) protein” (Board of Trustees of Michigan State University, priority 2008, dated 2014).

The target of assay [1] is T1, Arabidopsis TGD2, DsRed-TGD2C with deletion of the 25-mer minimal domain (DR-Δ25, residues 201-225 deleted) (Arabidopsis thaliana, UniProt Q9LTR2, DEL201-225).
T1 construct: made in house; host or cells: Escherichia coli BL21 (DE3)
T1 sequence (Q9LTR2 other isoform, or with tags, fused parts or gaps DEL201-225): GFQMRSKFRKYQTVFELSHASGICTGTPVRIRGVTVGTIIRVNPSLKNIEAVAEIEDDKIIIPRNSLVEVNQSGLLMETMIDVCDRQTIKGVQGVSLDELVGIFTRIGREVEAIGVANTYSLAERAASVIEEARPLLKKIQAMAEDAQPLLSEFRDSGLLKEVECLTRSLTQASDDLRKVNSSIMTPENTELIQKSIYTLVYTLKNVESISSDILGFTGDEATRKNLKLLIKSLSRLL
In words: Liposome-association assay, minimal domain deletion DR-Δ25. The format is binding. The procedure:
(§1) The liposome association assay was performed as previously reported. (31). Briefly, lipids (dioleoyl-phosphatidylcholine, DOPC or dioleoyl-PA, DOPA) were incubated in TBS (50 mM Tris-HCl, pH 7; 0.1 M NaCl) at 37° C. for an hour followed by vigorous vortexing for 5 min. The liposomes were precipitated at 20,000 g and washed twice with ice-cold TBS.
(§2) Liposomes (200 μg) were mixed with purified DsRed-TGD2 fusion protein and TBS to make a final 100 μL solution. The mixture was incubated at 30° C. for 30 min and washed twice with ice-cold TBS by centrifugation at 20,000 g at 4° C. The liposome pellet mixed with sample buffer was analyzed by SDS-PAGE (28). Immuno-detection of the His-tagged protein was accomplished using the above mentioned Penta-His antibody at 1:15,000 and the anti mouse antibody at 1:75,000 dilution.
(§3) The protein band was visualized by chemiluminescent detection kit from Sigma. The autoradiography film was scanned, distinct protein bands were quantified using computer software Multi Gauge V3.0 (Fujifilm USA, Valhalla, N.Y.) and resulted data were plotted and analyzed by OriginPro8 (Origin lab corporation, Northampton, Mass.).

Assay [2] deals with Arabidopsis TGD2, DsRed-TGD2C D1 (Δ221-250, SEQ ID NO:43) (Arabidopsis thaliana, UniProt Q9LTR2, DEL221-250). In words: Liposome-association assay, TGD2C D1 (Δ221-250). The settings on record: FIG. 3C. The format is binding. The procedure: as §1, §2, §3
Chain of Arabidopsis TGD2, DsRed-TGD2C D1 (Δ221-250, SEQ ID NO:43) (Q9LTR2 other isoform, or with tags, fused parts or gaps DEL221-250): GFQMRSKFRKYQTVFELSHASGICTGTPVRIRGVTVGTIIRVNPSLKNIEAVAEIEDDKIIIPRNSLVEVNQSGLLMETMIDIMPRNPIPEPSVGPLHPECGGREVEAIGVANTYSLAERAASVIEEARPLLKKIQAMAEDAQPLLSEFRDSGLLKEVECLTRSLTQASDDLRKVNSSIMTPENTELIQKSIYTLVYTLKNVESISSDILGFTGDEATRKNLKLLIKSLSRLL
In assay [3] the target is Arabidopsis TGD2, DsRed-TGD2C D2 (Δ221-225, SEQ ID NO:46) (Arabidopsis thaliana, UniProt Q9LTR2, DEL221-225). Description: Liposome-association assay, TGD2C D2 (Δ221-225). The format is binding. The settings on record: FIG. 3C. The procedure:
as §1, §2, §3

Assay [4] deals with T2, Arabidopsis TGD2, DsRed-TGD2C T8 (residues 201-225, SEQ ID NO:12) (Arabidopsis thaliana, UniProt Q9LTR2).
T2 sequence (Q9LTR2 201-225): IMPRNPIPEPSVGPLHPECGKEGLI
In words: Protein-lipid overlay assay, minimal domain. The format is binding. The settings on record: FIG. 4B; compared to DR-WT. The procedure:
Membrane lipid strips were purchased from Echelon Biosciences (Salt Lake City, Utah). The strips were first blocked with 3% bovine serum albumin in TBST (10 mM Tris-HCl, pH 8.0, 150 mM NaCl, and 0.25% Tween-20) for two hours and incubated in 0.5 μg/mL DsRed-TGD2 fusion protein solution in the blocking buffer at 4° C. overnight. The strips were washed 10 min for 3 times with TBST the next day and soaked in 3% bovine serum albumin in TBST with a Penta-His mouse monoclonal antibody (Sigma-Aldrich, St. Louis, Mo.) at 1:2,000 dilution at 4° C. overnight. The strips were washed twice with TBST and soaked in 3% bovine serum albumin in TBST with horseradish peroxidase-conjugated anti mouse antibody (Bio-Rad, Hercules, Calif.) at 1:20,000 dilution for an hour at room temperature. Following washing with TBST for 1 hour, the protein was detected by using the chemiluminescent detection system (Sigma-Aldrich).

Assay [5] has as its target T3, Arabidopsis TGD4, DsRED-TGD4C-His (C-terminal fragment 309-479, SEQ ID NO: 131) (Arabidopsis thaliana, UniProt Q9M903).
T3 sequence (Q9M903 309-479): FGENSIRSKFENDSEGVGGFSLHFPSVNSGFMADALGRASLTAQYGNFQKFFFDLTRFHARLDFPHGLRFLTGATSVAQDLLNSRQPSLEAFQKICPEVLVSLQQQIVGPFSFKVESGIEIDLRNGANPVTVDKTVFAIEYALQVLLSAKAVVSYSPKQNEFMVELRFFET
In words: Liposome association assay, DsRED-TGD4C-His. The format is binding. The settings on record: dioleoyl-PtdOH/dioleoyl-PtdCho liposomes, 0 to 80% PtdOH, FIG. 19B. The procedure: Liposome Association Assay:
The liposome association assay was adapted from (Awai et al., 2006, Lu and Benning, 2009) with minor modifications. Dioleoyl-PtdCho and PtdOH with different acyl chain lengths and desaturation levels were used for making liposomes. In other liposomes 1-palmitoyl-2-(12-((7-nitro-2-1,3-benzoxadiazol-4-yl)amino)dodecanoyl)-sn-glycero-3-phosphate (NBD-PtdOH; Avanti, Alabaster, Ala.) was used. The lipids were mixed at indicated ratios to give a total lipid amount of 250 μg. The lipids were dried under a stream of nitrogen, resuspended in 0.5 ml TBS buffer with 0.2 M choline chloride and hydrated at 37° C. for 1 hour followed by vigorous vortexing for 2 minutes. The resulting multi-lamellar vesicles were centrifuged at 13,000×g for 10 minutes and then washed once with TBS buffer containing 0.2 M choline chloride. The liposomes were resuspended into 100 μl TBS buffer with 0.2 M choline chloride and incubated with 2 μg purified DsRED-TGD4-His protein and its derivatives. The protein liposome mixture was incubated on ice for 30 minutes followed by centrifugation at 13,000×g for 10 minutes and two washes with 500 μl TBS containing 0.2 M choline chloride. The resulting protein-liposome pellet was resuspended in 20 μl 2× Laemmli buffer (Laemmli, 1970) and processed by SDS-PAGE (Shapiro and Maizel, 1969).

The subject of a further assay is RafC (Raf-1 kinase). The settings on record: literature (ref. 11); cited from earlier work.
Where [6] appears, read: mixed PA/PC liposomes, FIGS. 5E and 5F.

Chain of Arabidopsis TGD2, DsRed-TGD2C D2 (Δ221-225, SEQ ID NO:46) (Q9LTR2 other isoform, or with tags, fused parts or gaps DEL221-225): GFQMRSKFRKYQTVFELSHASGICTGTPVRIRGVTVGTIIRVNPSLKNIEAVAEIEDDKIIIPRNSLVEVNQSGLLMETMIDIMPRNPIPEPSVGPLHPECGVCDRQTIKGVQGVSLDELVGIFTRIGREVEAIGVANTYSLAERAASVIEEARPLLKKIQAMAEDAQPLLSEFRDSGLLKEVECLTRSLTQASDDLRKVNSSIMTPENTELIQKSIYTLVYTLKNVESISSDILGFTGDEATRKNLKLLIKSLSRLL

For the molecule `CCCCCCCC/C=C\CCCCCCCC(=O)OC[C@H](COP(=O)(O)O)OC(=O)CCCCCCC/C=C\CCCCCCCC` [PA, phosphatidic acid], in assay [1] (PA liposomes), the “residual PA binding activity” value was “retains residual binding activity, albeit with significantly lower affinity”. For the same molecule, the “Hill number, PA binding” value in assay [1] (setting [6]) is on record as 7.3. Further, the “Kd, PA binding” value in assay [1] (setting [6]) is 53.47 mol %. Also, the PA binding result in assay [2] was “did not seem to affect PA binding”; in assay [3], “decreased binding activity dramatically”. The “PA binding on membrane strip” value in assay [4] was “binds PA on the membrane strip, with apparent lower affinity”. In addition, in assay [5], the PtdOH binding affinity result was “much lower affinity compared to the wild-type protein DsRED-TGD4-His but still bound PtdOH”. For the same molecule, in the assay on RafC (Raf-1 kinase), the RafC-PA association is on record as 20 mol % PA.
